Source: patent US20070154449A1, “TIGHT JUNCTION MODULATING PEPTIDES FOR ENHANCED MUCOSAL DELIVERY OF THERAPEUTIC COMPOUNDS” (Nastech Pharmaceutical Company Inc., priority 2005, published 2007)
No end group written: not given here.

Assay: Intranasal PYY(3-36) pharmacokinetics in rabbits with various TJMPs (Example 10)
Assay type: in vivo, New Zealand White rabbits
Conditions: for AUCinf / AUClast / Cmax / T1/2 / Tmax: PYY(3-36) in plasma, 205 μg/kg intranasal with the named TJMP (concentration per Table 11, 50-1000 μM) or PBS, mean; for AUCinf / AUClast / Cmax / T1/2 / Tmax / In Vivo Tier Ranking: rabbit; for In Vivo Tier Ranking: PYY(3-36) 205 μg/kg intranasal, TJMP concentration per Table 11: PN159 50 μM, PN161, PN202 100 μM, PN27 250 μM, PN58, PN73, PN228 500 μM, PN183, PN556 1000 μM; for in vivo permeability relative to PN159: PYY(3-36) intranasal in rabbits, TJMPs at the concentrations tested
Text: The tubes were chilled until […].

Molecule | AUCinf [pg·min/mL] | AUClast [pg·min/mL] | Cmax [ng/mL] | T1/2 [min] | Tmax [min] | In Vivo Tier Ranking | in vivo permeability relative to PN159
CC[C@H](C)[C@H](NC(=O)[C@H](CCCCN)NC(=O)[C@@H](NC(=O)[C@H](CCC(N)=O)NC(=O)[C@@H](N)CCCNC(=N)N)[C@@H](C)CC)C(=O)N[C@@H](Cc1c[nH]c2ccccc12)C(=O)N[C@@H](Cc1ccccc1)C(=O)N[C@@H](CCC(N)=O)C(=O)N[C@@H](CC(N)=O)C(=O)N[C@@H](CCCNC(=N)N)C(=O)N[C@@H](CCCNC(=N)N)C(=O)N[C@@H](CCSC)C(=O)N[C@@H](CCCCN)C(=O)N[C@@H](Cc1c[nH]c2ccccc12)C(=O)N[C@@H](CCCCN)C(=O)N[C@@H](CCCCN)C(N)=O [PN58] | 871000 | 830000 | 12.8 | 29.5 | 43.0 |  | 
CC[C@H](C)[C@H](NC(=O)[C@H](CCCCN)NC(=O)[C@H](CCCCN)NC(=O)[C@H](C)NC(=O)[C@H](CC(C)C)NC(=O)[C@H](C)NC(=O)[C@H](C)NC(=O)[C@H](CC(C)C)NC(=O)[C@H](C)NC(=O)[C@H](CCCCN)NC(=O)[C@H](CC(C)C)NC(=O)[C@H](CC(N)=O)NC(=O)[C@@H](NC(=O)[C@H](CCCCN)NC(=O)CNC(=O)[C@H](CC(C)C)NC(=O)[C@H](CC(C)C)NC(=O)[C@H](Cc1ccc(O)cc1)NC(=O)CNC(=O)[C@H](C)NC(=O)[C@H](CO)NC(=O)[C@H](CC(N)=O)NC(=O)[C@H](CC(C)C)NC(=O)[C@@H](NC(=O)[C@H](Cc1c[nH]c2ccccc12)NC(=O)CN)[C@@H](C)O)[C@@H](C)CC)C(=O)N[C@@H](CC(C)C)C(N)=O [PN161] | 1.65e+06 | 1.62e+06 | 32.1 | 34.3 | 24.0 | I | comparable to PN159
AAVALLPAVLLALLAPRKKRRQRRRPPQ-NH2 [PN27] | 1.71e+06 | 1.67e+06 | 29.3 | 29.9 | 33.0 | I | comparable to PN159
KETWWETWWTEWSQPGRKKRRQRRRRPPQ-NH2 [PN183] | 275000 | 258000 | 5.45 | 33.7 | 22.0 |  | 
KLWSAWPSLWSSLWKP-NH2 [PN228] | 1.08e+06 | 1.06e+06 | 21.2 | 30.4 | 31.0 |  | 
